Columns and labels:
[1] = target: Serine/threonine-protein kinase Nek6 (Homo sapiens) (UniProt Q9HC98); assay: Inhibition of full length wild type human NEK6 expressed in bacterial system assessed as enzyme activity at 1 uM relative to control; design: scale not given: the % may be the effect or the level left
[2] = target: Myotonin-protein kinase (Homo sapiens) (UniProt Q09013); assay: Inhibition of partial length wild type human DMPK expressed in bacterial system assessed as enzyme activity at 1 uM relative to control; design: scale not given: the % may be the effect or the level left
[3] = target: Testis-specific serine/threonine-protein kinase 1 (Homo sapiens) (UniProt Q9BXA7); assay: Inhibition of full length wild type human TSSK1B expressed in bacterial system assessed as enzyme activity at 1 uM relative to control; design: scale not given: the % may be the effect or the level left
[4] = target: Dual specificity mitogen-activated protein kinase kinase 5 (Homo sapiens) (UniProt Q13163); assay: Inhibition of partial length wild type human MEK5 expressed in mammalian system assessed as enzyme activity at 1 uM relative to control; design: scale not given: the % may be the effect or the level left
[5] = target: Serine/threonine-protein kinase pim-1 (Homo sapiens) (UniProt P11309); assay: Inhibition of partial length wild type human PIM1 expressed in bacterial system assessed as enzyme activity at 1 uM relative to control; design: scale not given: the % may be the effect or the level left
[6] = target: Interferon-induced, double-stranded RNA-activated protein kinase (Homo sapiens) (UniProt P19525); assay: Inhibition of partial length wild type human PRKR expressed in bacterial system assessed as enzyme activity at 1 uM relative to control; design: scale not given: the % may be the effect or the level left
[7] = target: Serine/threonine-protein kinase MARK1 (Homo sapiens) (UniProt Q9P0L2); assay: Inhibition of partial length wild type human MARK1 expressed in bacterial system assessed as enzyme activity at 1 uM relative to control; design: scale not given: the % may be the effect or the level left
[8] = target: Cyclin-dependent kinase 4/cyclin D1 (Homo sapiens) (UniProt P11802+P24385); assay: Inhibition of full length wild type human CDK4-cyclinD1 expressed in mammalian system assessed as enzyme activity at 1 uM relative to control; design: scale not given: the % may be the effect or the level left
[9] = target: Insulin-like growth factor 1 receptor (Homo sapiens) (UniProt P08069); assay: Inhibition of partial length wild type human IGF1R expressed in bacterial system assessed as enzyme activity at 1 uM relative to control; design: scale not given: the % may be the effect or the level left
[10] = target: Tyrosine-protein kinase BTK (Homo sapiens) (UniProt Q06187); assay: Inhibition of full length wild type human BTK expressed in mammalian system assessed as enzyme activity at 1 uM relative to control; design: scale not given: the % may be the effect or the level left
[11] = target: RAC-beta serine/threonine-protein kinase (Homo sapiens) (UniProt P31751); assay: Inhibition of partial length wild type human AKT2 expressed in bacterial system assessed as enzyme activity at 1 uM relative to control; design: scale not given: the % may be the effect or the level left
[12] = target: Mast/stem cell growth factor receptor Kit (Homo sapiens) (UniProt P10721); assay: Inhibition of partial length wild type human KIT expressed in bacterial system assessed as enzyme activity at 1 uM relative to control; design: scale not given: the % may be the effect or the level left
[13] = test system: RIPK2 (Receptor-interacting serine/threonine-protein kinase 2); assay: Inhibition of partial length wild type human RIPK2 expressed in bacterial system assessed as enzyme activity at 1 uM relative to control; design: scale not given: the % may be the effect or the level left
[14] = target: Mitogen-activated protein kinase 10 (Homo sapiens) (UniProt P53779); assay: Inhibition of partial length wild type human JNK3 expressed in mammalian system assessed as enzyme activity at 1 uM relative to control; design: scale not given: the % may be the effect or the level left
[15] = target: Tyrosine-protein kinase Fyn (Homo sapiens) (UniProt P06241); assay: Inhibition of partial length wild type human FYN expressed in bacterial system assessed as enzyme activity at 1 uM relative to control; design: scale not given: the % may be the effect or the level left
[16] = target: Ribosomal protein S6 kinase alpha-5 (Homo sapiens) (UniProt O75582); assay: Inhibition of partial length wild type human RPS6KA5 (N-terminal Kinase Domain 1) expressed in bacterial system assessed as enzyme activity at 1 uM relative to control; design: scale not given: the % may be the effect or the level left
[17] = target: Serine/threonine-protein kinase PLK1 (Homo sapiens) (UniProt P53350); assay: Inhibition of partial length wild type human PLK1 expressed in mammalian system assessed as enzyme activity at 1 uM relative to control; design: scale not given: the % may be the effect or the level left
[18] = target: Serine/threonine-protein kinase PLK4 (Homo sapiens) (UniProt O00444); assay: Inhibition of partial length wild type human PLK4 expressed in mammalian system assessed as enzyme activity at 1 uM relative to control; design: scale not given: the % may be the effect or the level left
[19] = test system: MIA PaCa-2; assay: Selectivity index, ratio of EC50 for wild type B-Raf in human MIAPaCa2 cells to IC50 for B-Raf V600E mutant in human A375 cells; assay type: cell-based
[20] = target: Tyrosine-protein kinase SYK (Homo sapiens) (UniProt P43405); assay: Inhibition of partial length wild type human SYK expressed in bacterial system assessed as enzyme activity at 1 uM relative to control; design: scale not given: the % may be the effect or the level left
[21] = target: Serine/threonine-protein kinase mTOR (Homo sapiens) (UniProt P42345); assay: Inhibition of partial length wild type human MTOR expressed in mammalian system assessed as enzyme activity at 1 uM relative to control; design: scale not given: the % may be the effect or the level left
[22] = target: MAP/microtubule affinity-regulating kinase 3 (Homo sapiens) (UniProt P27448); assay: Inhibition of full length wild type human MARK3 expressed in bacterial system assessed as enzyme activity at 1 uM relative to control; design: scale not given: the % may be the effect or the level left
[23] = target: Vascular endothelial growth factor receptor 2 (Homo sapiens) (UniProt P35968); assay: Inhibition of partial length wild type human VEGFR2 expressed in mammalian system assessed as enzyme activity at 1 uM relative to control; design: scale not given: the % may be the effect or the level left
[24] = target: Rhodopsin kinase GRK1 (Homo sapiens) (UniProt Q15835); assay: Inhibition of full length wild type human GRK1 expressed in mammalian system assessed as enzyme activity at 1 uM relative to control; design: scale not given: the % may be the effect or the level left
[25] = target: Ephrin type-A receptor 4 (Homo sapiens) (UniProt P54764); assay: Inhibition of partial length wild type human EPHA4 expressed in bacterial system assessed as enzyme activity at 1 uM relative to control; design: scale not given: the % may be the effect or the level left
[26] = target: Dual specificity protein kinase CLK4 (Homo sapiens) (UniProt Q9HAZ1); assay: Inhibition of partial length wild type human CLK4 expressed in bacterial system assessed as enzyme activity at 1 uM relative to control; design: scale not given: the % may be the effect or the level left
[27] = target: Serine/threonine-protein kinase Nek4 (Homo sapiens) (UniProt P51957); assay: Inhibition of full length wild type human NEK4 expressed in mammalian system assessed as enzyme activity at 1 uM relative to control; design: scale not given: the % may be the effect or the level left
[28] = target: Casein kinase II subunit alpha (Homo sapiens) (UniProt P68400); assay: Inhibition of full length wild type human CSNK2A1 expressed in mammalian system assessed as enzyme activity at 1 uM relative to control; design: scale not given: the % may be the effect or the level left
[29] = target: Mitogen-activated protein kinase 1 (Homo sapiens) (UniProt P28482); assay: Inhibition of full length wild type human ERK2 expressed in bacterial system assessed as enzyme activity at 1 uM relative to control; design: scale not given: the % may be the effect or the level left
[30] = target: Hepatocyte growth factor receptor (Homo sapiens) (UniProt P08581); assay: Inhibition of partial length wild type human MET expressed in bacterial system assessed as enzyme activity at 1 uM relative to control; design: scale not given: the % may be the effect or the level left
[31] = target: Ephrin type-B receptor 3 (Homo sapiens) (UniProt P54753); assay: Inhibition of partial length wild type human EPHB3 expressed in bacterial system assessed as enzyme activity at 1 uM relative to control; design: scale not given: the % may be the effect or the level left
[32] = target: Serine/threonine-protein kinase/endoribonuclease IRE1 (Homo sapiens) (UniProt O75460); assay: Inhibition of partial length wild type human ERN1 expressed in mammalian system assessed as enzyme activity at 1 uM relative to control; design: scale not given: the % may be the effect or the level left

Chain of Serine/threonine-protein kinase MARK1 (Homo sapiens) (Q9P0L2 whole entry, looked up): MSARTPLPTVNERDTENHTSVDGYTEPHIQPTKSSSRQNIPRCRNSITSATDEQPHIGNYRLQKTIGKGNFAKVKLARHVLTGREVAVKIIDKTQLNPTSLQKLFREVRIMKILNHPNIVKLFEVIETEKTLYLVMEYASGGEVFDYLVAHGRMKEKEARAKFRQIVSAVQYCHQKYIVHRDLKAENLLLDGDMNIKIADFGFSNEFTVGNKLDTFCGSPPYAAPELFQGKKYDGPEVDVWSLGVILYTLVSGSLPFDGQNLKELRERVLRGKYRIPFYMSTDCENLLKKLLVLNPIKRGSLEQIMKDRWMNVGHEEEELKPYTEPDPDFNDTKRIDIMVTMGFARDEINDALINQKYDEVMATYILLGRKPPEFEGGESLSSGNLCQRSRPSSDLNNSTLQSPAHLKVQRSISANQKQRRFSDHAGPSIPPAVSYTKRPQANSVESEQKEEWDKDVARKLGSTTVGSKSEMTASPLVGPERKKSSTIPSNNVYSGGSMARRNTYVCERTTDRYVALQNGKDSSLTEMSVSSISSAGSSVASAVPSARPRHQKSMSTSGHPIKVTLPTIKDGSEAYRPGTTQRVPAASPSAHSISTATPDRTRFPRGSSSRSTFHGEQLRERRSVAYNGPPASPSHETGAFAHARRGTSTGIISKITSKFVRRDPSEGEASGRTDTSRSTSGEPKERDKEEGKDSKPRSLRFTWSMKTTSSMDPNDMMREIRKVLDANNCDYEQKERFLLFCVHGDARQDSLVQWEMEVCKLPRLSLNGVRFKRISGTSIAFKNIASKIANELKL
Chain of Tyrosine-protein kinase BTK (Homo sapiens) (Q06187 whole entry): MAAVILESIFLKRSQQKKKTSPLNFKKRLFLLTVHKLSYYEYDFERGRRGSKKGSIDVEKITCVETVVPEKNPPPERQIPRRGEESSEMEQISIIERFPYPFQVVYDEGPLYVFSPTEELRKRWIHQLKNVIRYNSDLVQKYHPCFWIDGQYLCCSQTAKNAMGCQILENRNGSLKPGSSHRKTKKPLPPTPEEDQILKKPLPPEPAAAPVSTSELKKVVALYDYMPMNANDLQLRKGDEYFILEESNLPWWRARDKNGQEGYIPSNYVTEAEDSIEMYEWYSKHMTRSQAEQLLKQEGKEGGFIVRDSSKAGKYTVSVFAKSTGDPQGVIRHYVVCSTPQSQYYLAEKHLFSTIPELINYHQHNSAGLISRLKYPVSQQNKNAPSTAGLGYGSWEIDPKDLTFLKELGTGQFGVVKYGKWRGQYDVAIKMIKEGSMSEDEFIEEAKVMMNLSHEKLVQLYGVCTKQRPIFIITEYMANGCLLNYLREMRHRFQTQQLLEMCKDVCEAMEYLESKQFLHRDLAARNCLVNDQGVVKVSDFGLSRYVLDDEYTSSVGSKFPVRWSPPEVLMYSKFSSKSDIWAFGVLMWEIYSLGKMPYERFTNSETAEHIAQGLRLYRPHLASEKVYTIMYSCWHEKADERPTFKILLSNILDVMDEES
Chain of Testis-specific serine/threonine-protein kinase 1 (Homo sapiens) (Q9BXA7 whole entry): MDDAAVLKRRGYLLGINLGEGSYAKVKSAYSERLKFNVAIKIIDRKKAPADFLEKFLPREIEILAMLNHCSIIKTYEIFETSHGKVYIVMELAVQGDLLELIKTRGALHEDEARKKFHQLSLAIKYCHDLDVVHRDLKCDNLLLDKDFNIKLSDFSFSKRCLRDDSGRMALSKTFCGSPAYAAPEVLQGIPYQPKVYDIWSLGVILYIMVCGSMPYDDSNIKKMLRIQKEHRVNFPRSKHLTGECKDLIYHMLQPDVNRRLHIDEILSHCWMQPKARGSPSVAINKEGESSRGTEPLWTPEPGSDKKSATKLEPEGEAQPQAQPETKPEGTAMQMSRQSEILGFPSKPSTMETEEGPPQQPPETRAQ
Chain of Ribosomal protein S6 kinase alpha-5 (Homo sapiens) (O75582 whole entry, looked up, the tested form may be a part): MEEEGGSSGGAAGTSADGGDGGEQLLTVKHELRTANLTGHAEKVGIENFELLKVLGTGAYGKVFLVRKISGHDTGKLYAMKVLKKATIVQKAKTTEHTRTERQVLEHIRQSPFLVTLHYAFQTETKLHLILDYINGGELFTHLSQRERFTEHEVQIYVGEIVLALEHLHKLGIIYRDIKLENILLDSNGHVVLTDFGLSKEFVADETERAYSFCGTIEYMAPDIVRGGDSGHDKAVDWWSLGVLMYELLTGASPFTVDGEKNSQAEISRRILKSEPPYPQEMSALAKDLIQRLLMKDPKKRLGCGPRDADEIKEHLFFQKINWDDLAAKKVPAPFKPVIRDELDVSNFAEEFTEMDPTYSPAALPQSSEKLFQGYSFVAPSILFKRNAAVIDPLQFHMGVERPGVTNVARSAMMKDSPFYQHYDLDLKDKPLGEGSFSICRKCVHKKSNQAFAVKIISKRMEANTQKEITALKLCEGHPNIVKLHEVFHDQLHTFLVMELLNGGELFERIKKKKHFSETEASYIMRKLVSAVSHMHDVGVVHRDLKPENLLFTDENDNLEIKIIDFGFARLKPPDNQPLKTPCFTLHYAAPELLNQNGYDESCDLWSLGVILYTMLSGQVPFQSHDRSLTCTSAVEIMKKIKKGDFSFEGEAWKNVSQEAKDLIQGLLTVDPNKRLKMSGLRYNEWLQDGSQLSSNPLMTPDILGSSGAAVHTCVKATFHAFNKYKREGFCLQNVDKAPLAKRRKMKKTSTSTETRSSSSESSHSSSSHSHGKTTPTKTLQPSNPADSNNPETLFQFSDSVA
Chain of Mitogen-activated protein kinase 10 (Homo sapiens) (P53779 whole entry): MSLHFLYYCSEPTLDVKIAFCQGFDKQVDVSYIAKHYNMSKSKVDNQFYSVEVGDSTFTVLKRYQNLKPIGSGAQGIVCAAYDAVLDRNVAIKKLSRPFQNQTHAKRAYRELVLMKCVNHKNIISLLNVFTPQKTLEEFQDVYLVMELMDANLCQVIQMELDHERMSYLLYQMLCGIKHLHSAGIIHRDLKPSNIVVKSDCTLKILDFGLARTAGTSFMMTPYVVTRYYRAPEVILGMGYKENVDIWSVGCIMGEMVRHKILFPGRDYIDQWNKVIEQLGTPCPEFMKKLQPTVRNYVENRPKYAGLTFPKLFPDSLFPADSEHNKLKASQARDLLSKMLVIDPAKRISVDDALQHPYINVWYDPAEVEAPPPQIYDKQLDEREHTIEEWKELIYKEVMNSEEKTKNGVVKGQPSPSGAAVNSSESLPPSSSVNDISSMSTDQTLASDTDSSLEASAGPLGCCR
Chain of Mitogen-activated protein kinase 1 (Homo sapiens) (P28482 whole entry): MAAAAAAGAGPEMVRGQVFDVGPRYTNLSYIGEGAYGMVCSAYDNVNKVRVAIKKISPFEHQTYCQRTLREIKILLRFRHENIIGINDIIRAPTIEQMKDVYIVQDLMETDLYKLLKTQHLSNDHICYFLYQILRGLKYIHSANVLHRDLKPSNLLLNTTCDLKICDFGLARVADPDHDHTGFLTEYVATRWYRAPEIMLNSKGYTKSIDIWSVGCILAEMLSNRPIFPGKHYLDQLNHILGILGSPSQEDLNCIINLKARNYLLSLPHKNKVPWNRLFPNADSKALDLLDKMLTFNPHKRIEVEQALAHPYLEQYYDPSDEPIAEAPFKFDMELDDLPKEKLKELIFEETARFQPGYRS
Chain of Rhodopsin kinase GRK1 (Homo sapiens) (Q15835 whole entry): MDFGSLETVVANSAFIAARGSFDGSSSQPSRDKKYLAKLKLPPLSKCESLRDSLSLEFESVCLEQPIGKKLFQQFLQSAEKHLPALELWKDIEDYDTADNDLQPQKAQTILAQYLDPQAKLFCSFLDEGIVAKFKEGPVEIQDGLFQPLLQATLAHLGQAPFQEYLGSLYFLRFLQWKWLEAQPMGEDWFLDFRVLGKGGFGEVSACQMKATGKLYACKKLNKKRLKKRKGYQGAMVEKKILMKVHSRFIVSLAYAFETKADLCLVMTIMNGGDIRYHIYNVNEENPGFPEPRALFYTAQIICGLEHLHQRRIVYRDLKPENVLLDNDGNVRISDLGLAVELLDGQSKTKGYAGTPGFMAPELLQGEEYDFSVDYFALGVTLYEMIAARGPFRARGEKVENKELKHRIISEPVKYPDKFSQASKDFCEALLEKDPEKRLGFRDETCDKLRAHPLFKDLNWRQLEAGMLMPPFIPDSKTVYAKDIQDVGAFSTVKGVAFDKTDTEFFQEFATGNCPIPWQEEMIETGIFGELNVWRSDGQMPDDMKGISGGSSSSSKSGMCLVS
Chain of Ephrin type-B receptor 3 (Homo sapiens) (P54753 whole entry): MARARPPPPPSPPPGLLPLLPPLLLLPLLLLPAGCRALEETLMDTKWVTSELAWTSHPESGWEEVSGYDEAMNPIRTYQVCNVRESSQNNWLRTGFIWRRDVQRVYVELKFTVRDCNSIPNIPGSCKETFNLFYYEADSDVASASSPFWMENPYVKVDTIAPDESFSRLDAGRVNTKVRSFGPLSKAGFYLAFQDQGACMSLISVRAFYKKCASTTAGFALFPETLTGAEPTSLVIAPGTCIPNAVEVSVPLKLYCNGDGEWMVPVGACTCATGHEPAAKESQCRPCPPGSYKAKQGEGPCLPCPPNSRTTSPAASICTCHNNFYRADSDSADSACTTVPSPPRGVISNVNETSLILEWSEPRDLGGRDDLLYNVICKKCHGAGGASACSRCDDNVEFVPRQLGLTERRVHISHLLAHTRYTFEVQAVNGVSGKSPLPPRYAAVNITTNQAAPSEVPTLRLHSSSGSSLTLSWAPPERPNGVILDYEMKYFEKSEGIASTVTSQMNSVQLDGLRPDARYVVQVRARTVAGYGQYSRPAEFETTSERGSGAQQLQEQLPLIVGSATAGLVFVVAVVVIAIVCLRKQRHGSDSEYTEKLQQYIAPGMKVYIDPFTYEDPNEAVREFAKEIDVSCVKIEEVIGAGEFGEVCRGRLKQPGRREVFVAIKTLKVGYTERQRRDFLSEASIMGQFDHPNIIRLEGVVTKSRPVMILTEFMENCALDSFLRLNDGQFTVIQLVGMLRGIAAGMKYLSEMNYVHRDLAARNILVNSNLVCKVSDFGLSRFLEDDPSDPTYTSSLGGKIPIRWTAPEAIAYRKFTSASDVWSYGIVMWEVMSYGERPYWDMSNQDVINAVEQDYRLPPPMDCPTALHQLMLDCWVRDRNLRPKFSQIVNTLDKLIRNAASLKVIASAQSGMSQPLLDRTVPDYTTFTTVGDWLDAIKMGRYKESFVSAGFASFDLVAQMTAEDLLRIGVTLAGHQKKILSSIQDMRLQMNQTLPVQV

CN(C)S(=O)(=O)Nc1ccc(F)c(Nc2ncccc2-c2ncnc3[nH]cnc23)c1F
Activity [1]: 79%
Activity [2]: 100%
Activity [3]: 100%
Activity [4]: 0.9%
Activity [5]: 83%
Activity [6]: 83%
Activity [7]: 100%
Activity [8]: 98%
Activity [9]: 98%
Activity [10]: 95%
Activity [11]: 100%
Activity [12]: 68%
Activity [13]: 40%
Activity [14]: 89%
Activity [15]: 64%
Activity [16]: 100%
Activity [17]: 100%
Activity [18]: 91%
Ratio [19]: 33
Activity [20]: 76%
Activity [21]: 100%
Activity [22]: 87%
Activity [23]: 84%
Activity [24]: 76%
Activity [25]: 90%
Activity [26]: 70%
Activity [27]: 100%
Activity [28]: 64%
Activity [29]: 98%
Activity [30]: 88%
Activity [31]: 94%
Activity [32]: 100%

— ChEMBL document CHEMBL3797029, “Purinylpyridinylamino-based DFG-in/αC-helix-out B-Raf inhibitors: Applying mutant versus wild-type B-Raf selectivity indices for compound profiling” (Bioorg Med Chem, 2016)
